Key:
Barnyardgrass (ECHCG) = test: pre-emergence test, weed control; format: in vivo, Echinochloa crus-galli; conditions: pre-emergent, 28 DAT; rate g ai/ha by row: r5 94, r6 125, r7 250, r8 62.5, r9 125, r10 250, r11 94+62.5, r12 125+62.5, r13 94+125, r14 125+125, r15 94+250, r16 125+250, r17 78.8, r18 157.5, r19 315, r20 94+78.8, r21 125+78.8, r22 94+157.5, r23 125+157.5, r24 94+315, r25 125+315
Protocol: (§1) Test compositions containing the test compounds were diluted with water to provide the appropriate test rate concentrations.
(§2) For pre-emergence testing, four disposable fiber flats (6 inch by 10 inch) for each rate of application of each herbicide solution were filled with top soil, to which seeds of each species were planted in furrows made by a template pressed on the top of the soil. The furrows were covered with soil after planting the seed and were watered well before application of the test compounds.
(§3) Fiber flats designated for treatment were placed in a spray chamber having a static platform and a movable sprayer and the height of the spray nozzle was 10.5 inches above the soil level. Once the sprayer was calibrated using water for spray volume of 30 gallons per acre, flats were sprayed with sprayer at a speed to receive a coverage equivalent of 30 gallons per acre. […]
(§4) The control of weeds was evaluated in each experimental test at 21 for wheat and 28 days after treatment (DAT) for all species. Data were analyzed using Minitab software at 95% confidence interval. […] Percent control was determined by a method similar to the 0 to 100 rating system disclosed in “Research Methods in Weed Science,” 2nd ed., B. Truelove, Ed.; Southern Weed Science Society; Auburn University, Auburn, Ala., 1977. […]

Large crabgrass (DIGSA) = test: pre-emergence test, weed control; format: in vivo; conditions: pre-emergent, 28 DAT, rate g ai/ha by row: r4 94, r5 50, r6 100, r7 52.5, r8 70, r9 94+52.5, r10 94+70, r11 50+52.5, r12 50+70, r13 100+52.5, r14 100+70
Protocol: as §1, §2
(§5) Fiber flats designated for treatment were placed in a spray chamber having a static platform and a movable sprayer and the height of the spray nozzle was 10.5 inches above the soil level. Once the sprayer was calibrated using water for spray volume of 30 gallons per acre, flats were sprayed with sprayer at a speed to receive a coverage equivalent of 30 gallons per acre. The application rates are those shown in the Tables below for the individual herbicidal solutions and the herbicide compositions of this invention. The pre-emergence flats were immediately placed in the greenhouse and watered lightly after treatment. Thereafter they were regularly watered and fertilized for the duration of the test.
(§6) The control of weeds was evaluated in each experimental test at 21 for wheat and 28 days after treatment (DAT) for all species. Data were analyzed using Minitab software at 95% confidence interval. The results, shown as an average of the replications, were compared with results observed in untreated control flats in the same tests. Percent control was determined by a method similar to the 0 to 100 rating system disclosed in “Research Methods in Weed Science,” 2nd ed., B. Truelove, Ed.; Southern Weed Science Society; Auburn University, Auburn, Ala., 1977. The rating system is as follows in Table 1.

Goosegrass (ELEIN) = test: pre-emergence test, weed control; format: in vivo; conditions: pre-emergent, 28 DAT; rate g ai/ha by row: r5 94, r6 125, r7 250, r8 62.5, r9 125, r10 250, r11 94+62.5, r12 125+62.5, r13 94+125, r14 125+125, r15 94+250, r16 125+250, r17 78.8, r18 157.5, r19 315, r20 94+78.8, r21 125+78.8, r22 94+157.5, r23 125+157.5, r24 94+315, r25 125+315
Protocol: as §1, §2, §5, §6

Green foxtail (SETVI) [1] = test: post-emergence test, weed control; format: in vivo, Setaria viridis; conditions: post-emergent, 28 DAT; BFL at 187.5 g, PYX at 90 g, combination of both
Protocol: as §1
(§7) For post-emergence testing, seeds of each species for each rate of application of each herbicide solution were planted in 7.5 cm×7.5 cm plastic pots filled with potting soil. The seeds were germinated and the resulting plants were allowed to grow in a greenhouse until they reached a growth stage, such as height, suitable for testing. Treatments were applied using compressed air in a track spray chamber at 30 gallons/acre (280 L/ha) using a TeeJet 8001E nozzle at 40 psi (2.76 bars). Pots of post-emergent treated plants were returned to the greenhouse and not watered for 24 hours after treatment. Thereafter they were regularly watered and fertilized for the duration of the test.
as §6

Hemp sesbania (SEHE8) = test: pre-emergence test, weed control; format: in vivo; conditions: pre-emergent, 28 DAT; BFL at 187.5 g, PYX at 90 g, combination of both
Protocol: as §1, §2, §5, §6

Yellow foxtail (SETLU) = test: pre-emergence test, weed control; format: in vivo; conditions: pre-emergent, 28 DAT
Protocol: as §1, §2, §5, §6

Cheat grass (BROSE) = test: pre-emergence test, weed control; format: in vivo; conditions: pre-emergent, 28 DAT, (+)-BFL >95% e.e.; rate g ai/ha by row: r6 62.5, r7 125, r8 62.5, r9 125, r10 222, r11 445, r12 22.5, r13 45, r14 62.5+62.5, r15 125+62.5, r16 62.5+125, r17 125+125, r18 62.5+222, r19 125+222, r20 62.5+445, r21 125+445, r22 62.5+22.5, r23 125+22.5, r24 62.5+45, r25 125+45
Protocol: as §1, §2, §5, §6

Blackgrass (ALOMY) = test: pre-emergence test, weed control; format: in vivo; conditions: pre-emergent, 28 DAT
Protocol: as §1, §2, §5, §6

Wild oat (AVEFA) [2] = test: pre-emergence test, weed control; format: in vivo, Avena fatua; conditions: pre-emergent, 28 DAT
Protocol: as §1, §2, §5, §6

Common chickweed (STEME) [3] = test: post-emergence test, weed control; format: in vivo, Stellaria media; conditions: post-emergent, 28 DAT; BFL at 187.5 g, PYX at 45 g, combination of both
Protocol: as §1
For post-emergence testing, seeds of each species for each rate of application of each herbicide solution were planted in 7.5 cm×7.5 cm plastic pots filled with potting soil. The seeds were germinated and the resulting plants were allowed to grow in a greenhouse until they reached a growth stage, such as height, suitable for testing. […] Pots of post-emergent treated plants were returned to the greenhouse and not watered for 24 hours after treatment. Thereafter they were regularly watered and fertilized for the duration of the test.
The control of weeds was evaluated in each experimental test at 21 for wheat and 28 days after treatment (DAT) for all species. […] The rating system is as follows in Table 1.

Jimsonweed (DATST) = test: pre-emergence test, weed control; format: in vivo, Datura stramonium; conditions: pre-emergent, 28 DAT; BFL at 187.5 g, PYX at 90 g, combination of both
Protocol: as §1, §2, §5, §6

Green foxtail (SETVI) [4] = test: pre-emergence test, weed control; format: in vivo, Setaria viridis; conditions: pre-emergent, 28 DAT
Protocol: as §1, §2, §5, §6

Redrice (ORYSA) = test: post-emergence test, weed control; format: in vivo; conditions: post-emergent, 28 DAT; BFL at 187.5 g, PYX at 90 g, combination of both
Protocol: as §1, §7, §6

[5] = tested on: Common lambsquarters (CHEAL); test: pre-emergence test, weed control; format: in vivo, Chenopodium album; conditions: pre-emergent, 28 DAT, (+)-BFL >95% e.e.; rate g ai/ha by row: r6 62.5, r7 125, r8 62.5, r9 125, r10 222, r11 445, r12 22.5, r13 45, r14 62.5+62.5, r15 125+62.5, r16 62.5+125, r17 125+125, r18 62.5+222, r19 125+222, r20 62.5+445, r21 125+445, r22 62.5+22.5, r23 125+22.5, r24 62.5+45, r25 125+45
Protocol: as §1, §2, §5, §6

Palmer amaranth (AMAPA) = test: pre-emergence test, weed control; format: in vivo, Amaranthus palmeri; conditions: pre-emergent, 28 DAT, (−)-BFL >95% e.e.; rate g ai/ha by row: r6 62, r7 125, r8 125, r9 250, r10 445, r11 890, r12 45, r13 90, r14 62+125, r15 125+125, r16 62+250, r17 125+250, r18 62+445, r19 125+445, r20 62+890, r21 125+890, r22 62+45, r23 125+45, r24 62+90, r25 125+90
Protocol: as §1, §2, §5, §6

Wild oat (AVEFA) [6] = test: post-emergence test, weed control; format: in vivo, Avena fatua; conditions: post-emergent, 28 DAT; BFL at 187.5 g, PYX at 90 g, combination of both
Protocol: as §1, §7, §6

Common chickweed (STEME) [7] = test: pre-emergence test, weed control; format: in vivo, Stellaria media; conditions: pre-emergent, 28 DAT; BFL at 187.5 g, PYX at 90 g, combination of both
Protocol: as §1, §2, §3, §4

[8] = (+)-BFL >95% e.e., rate g ai/ha by row: r6 62.5, r7 125, r8 62.5, r9 125, r10 222, r11 445, r12 22.5, r13 45, r14 62.5+62.5, r15 125+62.5, r16 62.5+125, r17 125+125, r18 62.5+222, r19 125+222, r20 62.5+445, r21 125+445, r22 62.5+22.5, r23 125+22.5, r24 62.5+45, r25 125+45, 22.5 g ai/ha
[9] = (+)-BFL >95% e.e., rate g ai/ha by row: r6 62.5, r7 125, r8 62.5, r9 125, r10 222, r11 445, r12 22.5, r13 45, r14 62.5+62.5, r15 125+62.5, r16 62.5+125, r17 125+125, r18 62.5+222, r19 125+222, r20 62.5+445, r21 125+445, r22 62.5+22.5, r23 125+22.5, r24 62.5+45, r25 125+45, 45 g ai/ha
[10] = (−)-BFL >95% e.e., rate g ai/ha by row: r6 62, r7 125, r8 125, r9 250, r10 445, r11 890, r12 45, r13 90, r14 62+125, r15 125+125, r16 62+250, r17 125+250, r18 62+445, r19 125+445, r20 62+890, r21 125+890, r22 62+45, r23 125+45, r24 62+90, r25 125+90
[11] = (−)-BFL >95% e.e., rate g ai/ha by row: r6 62, r7 125, r8 125, r9 250, r10 445, r11 890, r12 45, r13 90, r14 62+125, r15 125+125, r16 62+250, r17 125+250, r18 62+445, r19 125+445, r20 62+890, r21 125+890, r22 62+45, r23 125+45, r24 62+90, r25 125+90, 45 g ai/ha
[12] = (−)-BFL >95% e.e., rate g ai/ha by row: r6 62, r7 125, r8 125, r9 250, r10 445, r11 890, r12 45, r13 90, r14 62+125, r15 125+125, r16 62+250, r17 125+250, r18 62+445, r19 125+445, r20 62+890, r21 125+890, r22 62+45, r23 125+45, r24 62+90, r25 125+90, 90 g ai/ha

COC[C@H](C)N(C(=O)CCl)c1c(C)csc1C [Dimethanamid-P]
percentage of weed control, Barnyardgrass ECHCG (Barnyardgrass (ECHCG)): 100% | percentage of weed control, DIGSA (Large crabgrass (DIGSA); 52.5 g ai/ha): 20% | percentage of weed control, DIGSA (Large crabgrass (DIGSA); 70 g ai/ha): 25% | percentage of weed control, Goosegrass ELEIN (Goosegrass (ELEIN)): 96%

Cn1nc(C(F)(F)F)c(CS(=O)(=O)C2=NOC(C)(C)C2)c1OC(F)F [PYX, Pyroxasulfone]
control of green foxtail (Green foxtail (SETVI) [1]): 66% | control of hemp sesbania (Hemp sesbania (SEHE8)): 67% | percentage of weed control, SETLU (Yellow foxtail (SETLU); [8]): 99% | percentage of weed control, SETLU (Yellow foxtail (SETLU); [9]): 100% | percentage of weed control, SETLU (Yellow foxtail (SETLU); [10]): 100% | percentage of weed control, BROSE (Cheat grass (BROSE)): 100% | percentage of weed control, ALOMY (Blackgrass (ALOMY); (+)-BFL >95% e.e., rate g ai/ha by row: r6 62.5, r7 125, r8 62.5, r9 125, r10 222, r11 445, r12 22.5, r13 45, r14 62.5+62.5, r15 125+62.5, r16 62.5+125, r17 125+125, r18 62.5+222, r19 125+222, r20 62.5+445, r21 125+445, r22 62.5+22.5, r23 125+22.5, r24 62.5+45, r25 125+45): 100% | percentage of weed control, ALOMY (Blackgrass (ALOMY); [11]): 100% | percentage of weed control, ALOMY (Blackgrass (ALOMY); [12]): 99% | percentage of weed control, AVEFA (Wild oat (AVEFA) [2]; [8]): 98% | percentage of weed control, AVEFA (Wild oat (AVEFA) [2]; [9]): 96% | percentage of weed control, AVEFA (Wild oat (AVEFA) [2]; [11]): 100% | percentage of weed control, AVEFA (Wild oat (AVEFA) [2]; [12]): 99% | control of common chickweed (Common chickweed (STEME) [3]): 22% | control of jimsonweed (Jimsonweed (DATST)): 72% | percentage of weed control, SETVI (Green foxtail (SETVI) [4]; [8]): 97% | percentage of weed control, SETVI (Green foxtail (SETVI) [4]; [9]): 99% | percentage of weed control, SETVI (Green foxtail (SETVI) [4]; [10]): 99% | control of red rice (Redrice (ORYSA)): 39% | percentage of weed control, CHEAL [5]: 100% | percentage of weed control, AMAPA (Palmer amaranth (AMAPA)): 100% | control of wild oats (Wild oat (AVEFA) [6]): 48% | control of common chickweed (Common chickweed (STEME) [7]): 67%

Source: patent publication US11412737B2, “Mixtures of beflubutamid or optically enriched forms thereof with a second herbicide” (FMC Corporation, priority 2016, dated 2022)
